Measured values taken from patent publication US20240050399A1, “PHARMACEUTICAL COMPOSITIONS, COMPRISING A COMBINATION OF SELECT CARRIERS AND […] ANTIPATHOGENS” (EpitoGenesis, Inc., priority 2020, published 2024).
≈ marks a conversion by molar mass, not a printed value.

System: SARS-CoV-2 USA-WA1/2020
Experiment: Neutralization assay of SARS-CoV-2 with EGCG, quantified by Avicel plaque reduction assay on VeroE6 cells
Type: cell-based
Conditions: for IC50: normalized against control (virus in DMEM)

O=C(O[C@@H]1Cc2c(O)cc(O)cc2O[C@@H]1c1cc(O)c(O)c(O)c1)c1cc(O)c(O)c(O)c1 [EGCG, epigallocatechin gallate] was tested, and the “in vitro antiviral activity on vero cells infected with SARS-CoV-2” value (FIG. 1, plaque reduction) was “strong in vitro antiviral activity”, the IC50 (dilution series 1) was 42.65 µg/mL (≈ 93 µM) and the IC50 (dilution series 2) was 32.89 µg/mL (≈ 71.8 µM). It also gave an IC50 (dilution series 3) of 36.09 µg/mL (≈ 78.7 µM).
